Experimental findings from BindingDB's records for doi:10.1016/j.bioorg.2012.08.003 (North-West University, 2012) are described below.

The target in test [1] is T1, Amine oxidase [flavin-containing] A (Homo sapiens, UniProt P21397).
T1 sequence (P21397 whole entry): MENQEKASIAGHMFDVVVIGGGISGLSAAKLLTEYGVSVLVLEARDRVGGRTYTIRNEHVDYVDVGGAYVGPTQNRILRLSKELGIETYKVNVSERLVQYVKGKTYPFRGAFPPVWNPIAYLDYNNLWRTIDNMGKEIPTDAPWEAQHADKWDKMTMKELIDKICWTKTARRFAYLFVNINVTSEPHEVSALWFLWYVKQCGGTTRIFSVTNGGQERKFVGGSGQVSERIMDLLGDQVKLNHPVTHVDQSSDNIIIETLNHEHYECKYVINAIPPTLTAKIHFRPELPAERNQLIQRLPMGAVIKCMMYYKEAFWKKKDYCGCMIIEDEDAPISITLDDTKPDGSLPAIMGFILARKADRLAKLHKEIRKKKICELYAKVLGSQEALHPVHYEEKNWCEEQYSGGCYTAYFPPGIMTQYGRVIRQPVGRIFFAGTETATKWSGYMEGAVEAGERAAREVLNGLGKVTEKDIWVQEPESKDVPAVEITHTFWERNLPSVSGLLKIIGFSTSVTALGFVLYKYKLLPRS
As to the kind of experiment: Inhibition Assay. To be noted: pH 7.4; 37 °C. The text has this: (§1) Inhibition studies using recombinant human MAO-A and MAO-B that were obtained from commercial sources (Sigma-Aldrich).

The target of test [2] is T2, Amine oxidase [flavin-containing] B (Homo sapiens, UniProt P27338).
T2 sequence (P27338 whole entry): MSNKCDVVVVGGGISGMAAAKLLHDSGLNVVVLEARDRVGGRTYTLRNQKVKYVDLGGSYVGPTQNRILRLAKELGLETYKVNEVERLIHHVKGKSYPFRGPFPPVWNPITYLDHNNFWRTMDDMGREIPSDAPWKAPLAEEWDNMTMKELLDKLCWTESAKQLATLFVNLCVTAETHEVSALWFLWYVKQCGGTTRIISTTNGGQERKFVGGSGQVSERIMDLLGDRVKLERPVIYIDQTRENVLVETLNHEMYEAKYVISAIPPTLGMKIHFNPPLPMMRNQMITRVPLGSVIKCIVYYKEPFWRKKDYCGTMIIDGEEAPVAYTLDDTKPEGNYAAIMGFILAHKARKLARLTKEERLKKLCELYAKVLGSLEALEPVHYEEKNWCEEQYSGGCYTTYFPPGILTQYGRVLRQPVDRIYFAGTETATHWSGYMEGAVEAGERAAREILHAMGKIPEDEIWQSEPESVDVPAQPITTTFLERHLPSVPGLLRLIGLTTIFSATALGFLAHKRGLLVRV
As to the kind of experiment: Inhibition Assay. To be noted: pH 7.4; 37 °C.
Source text: as §1

What is called IC50 is the midpoint of a concentration-inhibition curve. Read a low IC50 as inhibition by little substance.

As for `O=c1ccoc2cc(OCc3ccccc3)ccc12` [C7-substituted chromone derivative, 3a], the IC50 came out at 5330 nM in test [1] and 85 nM in test [2].

Consider `O=c1ccoc2cc(OCCc3ccccc3)ccc12` [C7-substituted chromone derivative, 3b], for which the IC50 in test [1] came out at 2190 nM; in test [2], 115 nM.

Regarding `O=c1ccoc2cc(OCCCc3ccccc3)ccc12` [C7-substituted chromone derivative, 3c], the figures for the IC50 in test [1] and in test [2] were 3080 nM and 121 nM, respectively.

`O=c1ccoc2cc(OCc3cccc(Cl)c3)ccc12` [C7-substituted chromone derivative, 3d] had an IC50 in test [1] of 1520 nM.

Regarding `O=c1ccoc2cc(OCc3ccc(Cl)cc3)ccc12` [C7-substituted chromone derivative, 3e], the half-maximal inhibitory concentration (IC50) in test [1] was determined as 495 nM; in test [2] it was 29 nM.

With `O=c1ccoc2cc(OCc3cccc(Br)c3)ccc12` [C7-substituted chromone derivative, 3f], the values for the 50% inhibitory concentration (IC50) in test [1] and in test [2] were 1730 nM and 14 nM, respectively.

Consider `O=c1ccoc2cc(OCc3ccc(Br)cc3)ccc12` [C7-substituted chromone derivative, 3g], for which the figures for the IC50 in test [1] and in test [2] were 592 nM and 18 nM, respectively.

Turning to `O=c1ccoc2cc(OCc3cccc(F)c3)ccc12` [C7-substituted chromone derivative, 3h], the IC50 in test [1] came out at 2100 nM; in test [2], 44 nM.

Compound `O=c1ccoc2cc(OCc3ccc(F)cc3)ccc12` [C7-substituted chromone derivative, 3i] displayed an IC50 in test [1] of 1170 nM.

Consider `Cc1cccc(COc2ccc3c(=O)ccoc3c2)c1` [C7-substituted chromone derivative, 3j], for which the IC50 in test [1] was found to be 8030 nM; in test [2] it was 62 nM.

With `Cc1ccc(COc2ccc3c(=O)ccoc3c2)cc1` [C7-substituted chromone derivative, 3k], the figures for the IC50 in test [1] and in test [2] were 7120 nM and 75 nM, respectively.

For `N#Cc1cccc(COc2ccc3c(=O)ccoc3c2)c1` [C7-substituted chromone derivative, 3l], the results for the concentration for half-maximal inhibition (IC50) in test [1] and in test [2] were 784 nM and 370 nM, respectively.

For `N#Cc1ccc(COc2ccc3c(=O)ccoc3c2)cc1` [C7-substituted chromone derivative, 3m], the IC50 was determined as 1570 nM in test [1] and 117 nM in test [2].

`O=c1ccoc2cc(OCc3ccc(C(F)(F)F)cc3)ccc12` [C7-substituted chromone derivative, 3n] yielded an IC50 in test [1] of 1970 nM.

For `O=c1ccoc2cc(OCCc3ccc(Br)cc3)ccc12` [C7-substituted chromone derivative, 3o], the IC50 in test [1] amounted to 718 nM; in test [2] it was 317 nM.
